# From patent publication US20250144187A1, “COMBINATION OF HYDROLASES AND ANTI-MICROORGANISM DRUGS AND USES THEREOF” (CENTRE FOR EYE AND VISION RESEARCH LIMITED, priority 2023, published 2025)
# Key:
# MRSE [1] = test: High-throughput screening of 1953 FDA-approved compounds with human lysozyme; assay type: cell-based, Staphylococcus epidermis; conditions: compound 25 μM + 1 mg/ml lysozyme, 24-hour
# Protocol: 1) High-throughput screening. According to standard screening method [Zhong. […] Commun. 11, 523 (2020)], 1953 FDA-approved compounds from our drugs library at a fixed concentrations of 25 μM were screened against methicillin-resistant Staphylococcus aureus (MRSA) and Staphylococcus epidermis (a coagulase negative Staphylococci, MRSE), in combination with human lysozyme. Specifically, these compounds were added into bacterial suspensions (1×10^5 CFU/ml, in LB medium) in the absence or presence of 1 mg/ml lysozyme. LB medium without bacteria served as background group. Then, the real-time growth curvet of MRSA were monitored per hour and for 24 hours. Absorbance at 600 am (OD600) of bacterial culture at the time point of 24-hour was also measured. The inhibition ratio (%) was calculated as (ODcontrol−ODsample)/(ODcontrol−ODbackground)×100%. […] Herein, the relative and apparent inhibition ratios indicated the combination effect and potential toxicity of compound, respectively. Synergy effect was defined as the relative inhibition ratio of ≥90%. All assays were performed in triplicate.
# MRSE [2] = test: Check board broth micro-dilution assay, tedizolid phosphate with lysozyme; assay type: cell-based, Staphylococcus epidermis; conditions: tedizolid phosphate and lysozyme
# Protocol: 2) Check board broth micro-dilution assays. According to standard two-fold dilution method [Sun. H et al., Nat. Commun. 11, 5263 (2020) tedizolid phosphate at different concentrations were added into fresh LB medium (or trypticase soy troth medium with 5% defibrinated horse blood) containing different concentrations of human lysozyme in 96-well plate. Then, 20 μl of 1.0×10^7 CFU/ml logarithmic cultures of MRSA or MRSE were added into each well of the plate and co-incubated overnight. Drug-free LB medium in the absence or presence of bacteria served as background control and growth control group, respectively. […] Thus, there would be a series of FICI values. In most of cases, the lowest one among these values was listed to reflect the best achieving degree of combination therapy. In terms of the lowest FICI, FICI≤0.5, 0.5<FICI<1 or FICI≥1, would indicate the combination has synergy, part synergy or non-synergy effects, respectively.
# [3] = system: alkaline phosphatase extracted from MRSA; test: Enzyme activity of alkaline phosphatase (in vitro hydrolysis of tedizolid phosphate); assay type: biochemical, Staphylococcus aureus; conditions: enzyme from MRSA of the combination therapy group, after 1 hour
# Protocol: 14) Enzyme activity of alkaline phosphatase. All enzyme activities of alkaline phosphatase were analyzed according to the modified method as previously described [Zhao, X.-y et al., Nature 46, 86-90 (2009); Zhang, XC e al., Anal. Chem. 92, 5185-5190 (2020); Rosch, J. & Caparon, M. Science 304, 1513-1151 (2004); Wang. W et al., PLoS One 10, e012403512013); Ghosh, S. S et al., Circ. Res. 128, 1646-1659 (2021)]. Briefly, mid-log-phase MRSA or MRSE was treated with lysozyme, tedizolid phosphate or their combination at different concentrations. Those without any treatment served as untreated group. After incubation at 37° C. for 1 hour, all samples were collected, washed by distilled water and re-suspended in distilled water to collect bacterial suspension with an initial density of about 5.0×10^12 CFU/ml according to pre-experiment. Then, sonication lysis for 40 minutes at 4° C. and centrifugation at 18,000 g at 4° C. for 20 minutes were performed to collect these supernatants. Next, 20 μl of each supernatant was incubated with 4 μg of tedizolid phosphate. […] These slides were visualized under fluorescence microscopy and randomly selected bacteria were analyzed at ×1,500 magnification. To quantify the enzyme activity, similar protocol was performed on cell lysis supernatant instead of above-described bacterial suspension. Finally, absorption spectrums (300-800 nm) were collected and analyzed. […]
# MRSA-infected skin wound = test: Rat skin infection model, tedizolid phosphate/lysozyme; assay type: in vivo, Sprague Dawley (SD) rats; conditions: combination therapy
# Protocol: 19) Skin infection model. […] Except 3 rats in uninfected group, other 12 rats were infected by 5×10^11 CFUs of mid-log phase MRSA from our own collection. Briefly, all rats were firstly pec-depilated by using 10% Na2S to get an uncovered back area of 4 cm×4 cm before 24 hours for the anesthetization on rats. Then, the skin of anesthetized rat was removed until fascial region under sterile condition, followed by spraying 5.0×10^11 CFUs of mid-log phase MRSA on wound (3 cm×3 cm). Bacterial suspensions were collected by below-described method [Zhang. […] Specifically, mid-log phase MRSA was collected by centrifugation at 4500 g for 15 minutes, washed with PBS for 3 limes and re-suspended in cold PBS to get bacterial suspension with an initial density of about 4.0×10^11 CFU/ml according to pre-experiment. Next, 1.25 ml of bacterial suspension was sprayed onto wound. […] All sterile medical gauzes were 0.2 g/cm^2, and further covered by two layers of sterile gauzes and fixed by sterile tapes. Next, rats were monitored until they were fully awake, and then returned to their cages. After 24 hours infection, these sterile medical gauzes were replaced with new sterile medical gauzes soaking different drugs, i.e., normal saline, tedizolid phosphate (0.167 mg/kg) or lysozyme (0.833 mg/kg), or their combination (0.167 mg tedizolid phosphates/kg rat+0.833 mg lysosyme/kg rat), respectively. Meanwhile, rats in uninfected group were treated with new sterile medical gauzes soaking normal saline. All steps were repeated at 48-, 72-, 96-, 120- and 144-hr post-inoculation. At 168 hours post-inoculation, all rats were sacrificed to collect their wounds. These collected tissues were fixed in 10% formalin for at least 24 hours and embedded in paraffin. Next, about 4-μm sections were analyzed by using the hematoxylin and eosin (H-E) staining kit. […] Meanwhile, this homogenate was also 10-fold gradient-diluted in 96-well plate to figure out the bacterial load in infected wound according to quantitative grown colony after overnight culture. […]
Structure (SMILES),"Growth inhibition ratio (mean ± SD, %) MRSE (MRSE [1]) [%]",fractional inhibitory concentration index (FICI) (MRSE [2]),tedizolid phosphate hydrolyzed [3],decrease in the level of IL-6 (MRSA-infected skin wound; 7 days),decrease in the level of ROS (MRSA-infected skin wound; 7 days) [%],reduction of bacterial load in the wound (MRSA-infected skin wound; 168 hours post-inoculation)
"C=CC1=C(C(=O)O)N2C(=O)[C@@H](NC(=O)/C(=N\O)c3csc(N)n3)[C@H]2SC1 [cefdinir, Cefdinir]",20.31 ± 13.83,,,,,
"Cn1nnc(-c2ccc(-c3ccc(N4C[C@H](COP(=O)(O)O)OC4=O)cc3F)cn2)n1 [tedizolid phosphate, Tedizolid Phosphate]",,< 0.023,up to 65%,more than 20%,> 70,> 10^6 fold
